Data: paper PMC4827351 (Chemical Science, 2015)

Legend:
[1] = test system: Escherichia coli ATCC 25922; assay: Antimicrobial activity assay (CFU counting); assay type: cell-based; conditions: 50 µM peptide, 1 h, 37 °C, 10 mM sodium phosphate buffer containing 1% v/v TSB, n = 3
Description: (§1) The assays were performed according to a literature procedure.[15] Briefly, a 90 μL aliquot of the diluted bacterial culture was added to each well and then to each well was added 10 μL of a 10× concentrated aqueous peptide solution (500 μM) or sterile Milli-Q water as a no-peptide control. The plate was incubated for 1 h (37 °C, 150 rpm). The serial dilution for CFU counting was conducted as previously reported.[15] These assays were performed with at least two independently prepared and purified samples of each peptide and in three independent trials. The resulting averages and standard deviations are reported. […]
(§2) a bE. coliL. monocytogenes
(§3) Concentration (µM) Concentration (µM)
(§4) Figure S4. Antibacterial activity assays against E. coli ATCC 25922 and L. monocytogenes ATCC 19115. The bacteria were treated with 50 µM of each peptide for 1 h at 37 ° C in 10 mM sodium phosphate buffer containing 1% v/v TSB (mean ± SDM, n = 3). An asterisk indicates no […]
(§5) Retention Time (min) Retention Time (min)
(§6) Figure S5. In vitro trypsin-catalyzed proteolysis of proHD6. Analytical HPLC traces of trypsin-treated (a) proHD6 or (b) mature HD6 (30 µM x 80 µL) at indicated time points. Absorbance at 220 nm was monitored with a reference wavelength of 500 nm. Method: 10–60% B over 30 min

[2] = test system: Listeria monocytogenes ATCC 19115; assay: Antimicrobial activity assay (CFU counting); assay type: cell-based; conditions: 50 µM peptide, 1 h, 37 °C, 10 mM sodium phosphate buffer containing 1% v/v TSB, n = 3
Description: as §1, §2, §3, §4, §5, §6

E. coli Nissle = assay: SEM analysis of bacterial agglutination; assay type: cell-based, Escherichia coli; conditions: 3 µM proHD6 treated with trypsin before incubation (trypsin inactivated with APMSF), 30 min, 50 mM Tris-maleate pH 6.4
Description: Bacteria were grown aerobically at 37 °C overnight in LB media. The next morning the strains were subcultured and grown to mid-logarithmic phase in LB media. An aliquot of the bacteria (0.5–2 × 10^7 CFU mL^–1) was removed, sedimented by centrifugation (7000g × 2 min, 4 °C), washed twice with 50 mM Tris-maleate buffer, pH 6.4, and then resuspended in 0.5 mL of the 50 mM Tris-maleate buffer. The bacterial suspension was incubated at room temperature for 30 min with buffer control, 0.4 μM APMSF-inactivated trypsin, 3 μM proHD6, 3 μM trypsin-cleaved proHD6, or 3 μM HD6. Trypsin-cleaved proHD6 was prepared by incubating 30 μM proHD6 with 4 μM trypsin (Affimetrix, Santa Clara, CA) for 1 h at room temperature in 50 mM Tris-maleate buffer, pH 6.4. At the end of incubation, the trypsin was inactivated by addition of APMSF (p-amidinophenylmethylsulfonylfluoride HCl, Millipore, 25 μg mL^–1), and the mixture was added to the bacterial suspension. The APMSF-inactivated trypsin was similarly prepared, except that proHD6 was omitted from the preincubation. After a 30 min incubation, the treated bacterial suspensions were sedimented by centrifugation (7000g × 5 min, 4 °C), and the buffer supernatant was carefully removed. […]

[3] = test system: L. monocytogenes ATCC19115; assay: SEM analysis of bacterial agglutination; assay type: cell-based, Listeria monocytogenes; conditions: 3 µM proHD6 treated with trypsin before incubation (trypsin inactivated with APMSF), 30 min, 50 mM Tris-maleate pH 6.4
Description: Fig. 3 TEM analysis of HD6 self-assembly and SEM analysis of bacterial agglutination. Top row: transmission electron micrographs of 10 mM sodium phosphate pH 7.4 (control), 0.4 μM trypsin (control), 20 μM proHD6 in the absence and presence of 0.4 μM trypsin, and 20 μM HD6. All the samples were incubated at room temperature for 1 h. Scale bar = 100 nm. TEM images obtained using 10 mM Tris-maleate pH 6.4 are presented in Fig. S7. ^† Middle row: scanning electron micrographs of E. coli ATCC 25922 treated with 50 mM Tris-maleate pH 6.4 (control), 0.4 μM APMSF-inactivated trypsin (control), 3 μM proHD6, 3 μM trypsin-cleaved proHD6, or 3 μM HD6. Trypsin-cleaved proHD6 was prepared prior to incubation with the bacteria and the residual enzymatic activity was inhibited by APMSF (Experimental section). Following a 30 min incubation, the bacterial suspensions were centrifuged, fixed, and analyzed by SEM. Scale bar = 20 μm. Bottom row: SEM of L. monocytogenes ATCC19115 treated under the same conditions as in the middle row. Scale bar = 20 μm.
Bacteria were grown aerobically at 37 °C overnight in LB media. The next morning the strains were subcultured and grown to mid-logarithmic phase in LB media. […]

EPLQAEDDPLQAKAYEADAQEQRGANDQDFAVSFAEDASSSLRALGSTRAFTCHCRRSCYSTEYSYGTCTVMGINHRFCCL (disulfide (positions not given here)) [proHD6, 81-residue propeptide of human α-defensin 6, recombinant, from His6-SUMO-proHD6]
antibacterial activity [1]: does not exhibit antibacterial activity
antibacterial activity [2]: does not exhibit antibacterial activity
bacterial agglutination (SEM), trypsin-cleaved (E. coli Nissle): entangled and agglutinated E. coli
bacterial agglutination (SEM), trypsin-cleaved [3]: same trypsin-dependent activity
